According to patent EP0996436B1, “PHARMACEUTICAL FORMULATIONS CONTAINING POORLY SOLUBLE DRUG SUBSTANCES” (Sanofi-Aventis, priority 1997, dated 1998):

Legend:
[1] = Dissolution rate of SR48692 capsules in deionized water pH 5.5 (USP Apparatus 2); type: physicochemical; settings: at the end of the experiment of 60 minutes, water pH 5.5 (unbuffered), 37°C
Procedure: The dissolution rate of 25 mg SR48692 solid dispersion in hard gelatin capsules were measured in deionized water (900 ml, pH=5.5, unbuffered) at 37°C. A USP dissolution system (Apparatus 2) with a paddle speed of 100 RPM was used. Dissolution rate was monitored by UV (Hewlett Packard 8452A) at 234 nm.
A screening dissolution test was run in USP Apparatus 2 with water at pH 5.5 (unbuffered) at 37°C comparing the solid dispersion of this invention (Example 2) with unformulated (jet-milled) SR48692. The solid dispersions provide enormous dissolution enhancement with respect to pure drug and low impurity levels (0.4%).

[2] = Solubility of SR48692 in polyethylene glycol/NaOH/water; type: physicochemical; settings: PEG/NaOH/H2O; mole equivalents of NaOH per mole of drug 1.0 and less

**Q.** With SR48692 as the substance, how does the dissolved [1] read?
**A.** < 10%

**Q.** And the solubility [2]?
**A.** Inadequate
